Results as given in patent US20250129095A1, “ANNULATED 2-AMINO-3-CYANO THIOPHENES AND DERIVATIVES FOR THE TREATMENT OF CANCER” (Boehringer Ingelheim Int'l GmbH Corp., priority 2021, published 2025).
pIC50: −log10 of the molar value. ≈ marks a conversion by molar mass, not a printed value. Like-named read-outs stand apart in the source and are kept apart here.

How the values were obtained:
AsPC-1 cells = assay: AsPC-1 CTG proliferation assay (120 h) (pancreatic cancer, G12D); assay type: cell-based; conditions: Homo sapiens, ASPC1
Protocol: The CTG assay is designed to measure quantitatively the proliferation of AsPC-1 cells (ATCC CRL-5985), using the CellTiter Glow Assay Kit (Promega G7571). Cells are grown in RPMI medium (ATCC) supplemented with Fetal Calf Serum (Life Technologies, Gibco BRL, Cat. No. 10270-106). On “day 0” 2000 AsPC-1 cells are seeded in 60 μL RPMI ATCC+10% FCS+ Penstrep in a 384-well plate, flat and clear bottom (Greiner, PNr. 781091). Cells are then incubated in the plates at 37° C. in a CO2 incubator overnight. On day 1, compounds (10 mM stock in DMSO) are added with the ECHO acoustic liquid handler system (Beckman Coulter), including DMSO controls. Plates are incubated for 120 h, and cell viability is measured using CellTiter-Glo luminescent cell viability reagent (Promega product code G7570). Viability (stated as percent of control) is defined as relative luminescence units RLU of each well divided by the RLU of cells in DMSO controls.

NCI-H2122 cells = assay: NCI-H2122 CTG proliferation assay (120 h) (NSCLC, G12C); assay type: cell-based; conditions: Homo sapiens
Protocol: The CTG assay is designed to measure quantitatively the proliferation of NCI-H2122 cells (ATCC CRL-5985), using the CellTiter Glow Assay Kit (Promega G7571). Cells are grown in RPMI medium (ATCC) supplemented with Fetal Calf Serum (Life Technologies, Gibco BRL, Cat. No. 10270-106). On “day 0” 200 NCI-H2122 cells are seeded in 60 μL RPMI ATCC+10% FCS+Penstrep in a black 384-well plate, flat and clear bottom (Greiner, PNr. 781091). Cells are then incubated in the plates at 37° C. in a CO2 incubator overnight. On day 1, compounds (10 mM stock in DMSO) are added with the ECHO acoustic liquid handler system (Beckman Coulter), including DMSO controls. Plates are incubated for 120 h, and cell viability is measured using CellTiter-Glo luminescent cell viability reagent (Promega product code G7570). Viability (stated as percent of control) is defined as relative luminescence units RLU of each well divided by the RLU of cells in DMSO controls. […] values are determined from viability measurements by non-linear regression using a four parameter model. • AsPC-1 CTG proliieradon assay (120 h) (pancreatic cancer, G12D)

SK-CO-1 cells = assay: SK-CO-1 CTG proliferation assay (120 h) (CRC, G12V); assay type: cell-based; conditions: Homo sapiens
Protocol: SK-CO-1 cells (ATCC HTB-39) are dispensed into 384-well plates, flat and clear bottom (Greiner, PNr. 781091) at a density of 500 cells per well in 60 μL EMEM (Sigma M5650)+10% Fetal Calf Serum (HyClone, PNr.: SH30084.03) and incubated at 37° C. in a CO2 incubator overnight. The next day, compounds (10 mM stock in DMSO) are added with the ECHO acoustic liquid handler system (Beckman Coulter), including DMSO controls. Plates are incubated for 120 h, and cell viability is measured using CellTiter-Glo luminescent cell viability reagent (Promega product code G7570). Viability (stated as percent of control) is defined as relative luminescence units RLU of each well divided by the RLU of cells in DMSO controls.

[1] = Solubility measurement (DMSO solution precipitation method); assay type: physicochemical; conditions: aqueous buffer, kinetic from dmso stock
Protocol: The DMSO solution is diluted with an aqueous medium (McIlvaine buffer with pH=4.5 or 6.8) to a final concentration of 250 μM. After 24 h of shaking at ambient temperature a potentially formed precipitate is removed by filtration. The concentration of the test compound in the filtrate is determined by LC-UV methods by calibrating the signal to the signal of a reference solution with complete dissolution of the test compound in acetonitrile/water (1:1) with known concentration.

[2] = Plasma protein binding assay (PPB), equilibrium dialysis; assay type: in vitro ADME; conditions: bovine, 10% FCS in PBS, read-out: PPB 10% FCS (% fu)
Protocol: Binding of test compounds to plasma was determined using equilibrium dialysis (ED) and quantitative mass spectrometry interfaced with liquid chromatography (LC-MS). In brief, ED was performed with dialysis devices consisting of two chambers separated by a semipermeable membrane with a molecular weight cut-off of 5-10 kg/mol. One chamber was filled with 10% FCS in PBS containing 1-10 μmol/L test compound and the other chamber was filled with phosphate-buffer saline (PBS) with or without dextran. The dialysis chamber was incubated for 3-5 hours at 37° C. After incubation, protein was precipitated from aliquots of each chamber and the concentration of test compound in the supernatant of the plasma-containing compartment (cserum) and of the buffer-containing compartment (cbuffer) was determined by LC-MS. The fraction of unbound test compound (not bound to plasma) (fu) was calculated according to the following equation: […]

KRAS G12D Ba/F3 = KRAS G12D Ba/F3 (Homo sapiens, UniProt P01116, G12D, cells depend on it); assay: Ba/F3 proliferation assay, KRAS G12D; assay type: cell-based; conditions: 72 h, AlamarBlue, read-out: KRAS G12D Ba/F3 IC50
KRAS G12D Ba/F3, sequence (P01116 whole entry G12D, canonical isoform): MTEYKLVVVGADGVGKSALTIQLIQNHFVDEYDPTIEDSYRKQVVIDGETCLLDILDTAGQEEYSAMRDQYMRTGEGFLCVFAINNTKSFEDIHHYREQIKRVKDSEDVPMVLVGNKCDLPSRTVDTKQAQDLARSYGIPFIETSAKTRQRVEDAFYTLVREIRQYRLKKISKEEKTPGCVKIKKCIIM
Protocol: (§1) Plasmids containing KRASG12 mutants(i.e. G12D, G12C, G12V) are obtained from GeneScript. To generate KRASG12-dependent Ba/F3 models, Ba/F3 cells are transduced with retroviruses containing vectors that harbor KRASG12 isoforms. Platinum-E cells (Cell Biolabs) are used for retrovirus packaging. Retrovirus is added to Ba/F3 cells. To ensure infection, 4 μg/mL polybrene is added and cells are spinfected. […] Cells with an infection efficiency of 10% to 20% are further cultivated and puromycin selection with 1 μg/mL is initiated. As a control, parental Ba/F3 cells are used to show selection status. Selection is considered successful when parental Ba/F3 cells cultures died. To evaluate the transforming potential of KRASG12 mutations, the growth medium is no longer supplemented with IL-3. Ba/F3 cells harboring the empty vector are used as a control. Approximately ten days before conducting the experiments, puromycin is left out.
(§2) Compounds are added using an Access Labcyte Workstation with a Labcyte Echo 550 or 555 accoustic dispenser. All treatments are performed in technical duplicates. […] AlamarBlue™ (ThermoFisher), a viability stain, is added and fluorescence measured in the PerkinElmer Envision HTS Multilabel Reader. The raw data are imported into and analyzed with the Boehringer Ingelheim proprietary software MegaLab (curve fitting based on the program PRISM, GraphPad Inc.).

KRAS G12C Ba/F3 = KRAS G12C Ba/F3 (Homo sapiens, UniProt P01116, G12C, cells depend on it); assay: Ba/F3 proliferation assay, KRAS G12C; assay type: cell-based; conditions: 72 h, AlamarBlue, read-out: KRAS G12C Ba/F3 IC50
KRAS G12C Ba/F3, sequence (P01116 whole entry G12C): as the sequence (P01116 whole entry G12D, canonical isoform) above, with D12C counted along it
Protocol: as §1, §2

[3] = McIlvaine buffer pH 4.5, 24 h, read-out: Solubility [μg/ml] pH 4.5
[4] = McIlvaine buffer pH 6.8, 24 h, read-out: Solubility [μg/ml] pH 6.8

SMILES | pIC50 (AsPC-1 cells) | pIC50 (NCI-H2122 cells) | pIC50 (SK-CO-1 cells) | solubility at 24 h [1, 3] [µg/mL] | solubility at 24 h [1, 4] [µg/mL] | fraction unbound [2] | GI50 (KRAS G12D Ba/F3) [nM] | GI50 (KRAS G12C Ba/F3) [nM]
C[C@H](Oc1cc(O[C@H]2CNC(C)(C)C2)nc(-c2noc3c2CCC[C@@]32CCCc3sc(N)c(C#N)c32)n1)[C@@H]1CCCN1C (single isomer, unassigned) [II-8] | 5.76 | 5.87 | 6.11 | > 145 | > 146 | 0.59 | 388 | 592
C[C@H](Oc1cc(Oc2nccs2)nc(-c2onc3c2CCC[C@@]32CCCc3sc(N)c(C#N)c32)n1)[C@@H]1CCCN1C [Example I-1] | 5.60 | 5.83 | 7.62 | 95 (≈ 161 µM) | < 1 | 0.25 | 11 | 4
C[C@H](Oc1cc(Oc2cccnc2)nc(-c2onc3c2CCC[C@@]32CCCc3sc(N)c(C#N)c32)n1)[C@@H]1CCCN1C [Example I-2] | 5.88 | 6.13 | 7.64 | > 125 | 89 (≈ 152 µM) | 0.31 | 6 | 4
C[C@H](Oc1cc(Oc2cncnc2)nc(-c2onc3c2CCC[C@@]32CCCc3sc(N)c(C#N)c32)n1)[C@@H]1CCCN1C [Example I-3] | 6.17 | 5.64 | 7.54 | > 128 | > 121 | 0.57 | 5 | 4
C[C@H](Oc1cc(N[C@H]2CCOC2)nc(-c2onc3c2CCC[C@@]32CCCc3sc(N)c(C#N)c32)n1)[C@@H]1CCCN1C [Example I-4] | 5.02 | 5.62 | 6.12 | > 135 | 107 (≈ 186 µM) | 0.6 | 41 | 83
COC[C@H](C)Nc1cc(O[C@@H](C)[C@@H]2CCCN2C)nc(-c2onc3c2CCC[C@@]32CCCc3sc(N)c(C#N)c32)n1 [Example I-5] | – | – | – | 111 (≈ 192 µM) | 109 (≈ 189 µM) | 0.45 | 122 | 71
C[C@H](Oc1cc(Nc2ccccn2)nc(-c2onc3c2CCC[C@@]32CCCc3sc(N)c(C#N)c32)n1)[C@@H]1CCCN1C [Example I-6] | 5.47 | 5.95 | 6.56 | 23 (≈ 39.5 µM) | 2 (≈ 3.43 µM) | 0.31 | 47 | 58
C[C@H](Oc1cc(Sc2ncccn2)nc(-c2onc3c2CCC[C@@]32CCCc3sc(N)c(C#N)c32)n1)[C@@H]1CCCN1C [Example I-7] | 4.99 | 5.44 | 6.10 | > 146 | 70 (≈ 117 µM) | 0.61 | 97 | 75
C[C@H](Oc1cc(OCC2(N(C)C)COC2)nc(-c2onc3c2CCC[C@@]32CCCc3sc(N)c(C#N)c32)n1)[C@@H]1CCCN1C [Example I-8] | 6.57 | 5.90 | 6.40 | > 143 | > 125 | 0.45 | 11 | 51
C[C@H](Oc1cc(Oc2cncnc2)nc(-c2noc3c2CCC[C@@]32CCCc3sc(N)c(C#N)c32)n1)[C@@H]1CCCN1C [II-1] | 6.16 | 6.15 | 7.74 | > 137 | > 124 | 0.19 | 6 | 4
C[C@H](Oc1cc(Oc2nccs2)nc(-c2noc3c2CCC[C@@]32CCCc3sc(N)c(C#N)c32)n1)[C@@H]1CCCN1C [II-2] | 5.74 | 7.11 | 7.59 | > 109 | < 1 | 0.07 | 20 | 5
C[C@H](Oc1cc(O[C@@H]2CNC2(C)C)nc(-c2noc3c2CCC[C@@]32CCCc3sc(N)c(C#N)c32)n1)[C@@H]1CCCN1C [II-9] | 7.31 | 5.90 | 6.77 | – | – | 0.52 | 5 | 133
C[C@H](Oc1cc(NCC2COC2)nc(-c2noc3c2CCC[C@@]32CCCc3sc(N)c(C#N)c32)n1)[C@@H]1CCCN1C [II-11] | 5.64 | 5.67 | 7.34 | – | – | 0.62 | 28 | 14
C[C@H](Oc1cc(Nc2ccncn2)nc(-c2noc3c2CCC[C@@]32CCCc3sc(N)c(C#N)c32)n1)[C@@H]1CCCN1C [II-15] | 5.45 | 6.07 | 7.04 | – | – | 0.5 | 59 | 29
C[C@H](Oc1cc(Nc2ccccn2)nc(-c2noc3c2CCC[C@@]32CCCc3sc(N)c(C#N)c32)n1)[C@@H]1CCCN1C [II-16] | – | – | – | 41 (≈ 70.4 µM) | < 1 | 0.37 | 43 | 24
C[C@H](Oc1cc(Nc2cccnn2)nc(-c2noc3c2CCC[C@@]32CCCc3sc(N)c(C#N)c32)n1)[C@@H]1CCCN1C [II-18] | 5.52 | 6.09 | 6.88 | – | – | 0.61 | 46 | 37
C[C@H](Oc1cc(O[C@@H]2CNC[C@@H]2F)nc(-c2noc3c2CCC[C@@]32CCCc3sc(N)c(C#N)c32)n1)[C@@H]1CCCN1C [II-29] | 6.37 | 6.14 | 6.86 | – | – | 0.52 | 22 | 79
